# From patent publication US9006185B2, “Use of cell-permeable peptide inhibitors of the JNK signal transduction pathway for the treatment of various diseases” (Xigen Inflammation Ltd., priority 2008, dated 2015)
# “Also recorded” adds a separate entry of the source.
# Tested on: C57BL/6 mice
# Test: Bleomycin induced acute lung inflammation
# Format: in vivo
# Excerpt: In order to determine the activity of the exemplary all-D retro-inverso IB(s) peptide XG-102 (SEQ ID NO: 11) in the treatment of Chronic Obstructive Pulmonary Disease (COPD) XG-102 (SEQ ID NO: 11) is used in an animal model of Bleomycin induced acute lung inflammation and fibrosis. The protocol of bleomycin induced inflammation and fibrosis has been described before in the literature. The aim of the Experiment was to investigate the effect of XG-102 (SEQ ID NO: 11) by subcutaneous (s.c.) route on neutrophil recruitment in broncho alveolar lavage (BAL) and lung in bleomycin induced inflammation and fibrosis: • at 1 day after a single bleomycin administration (10 mg/kg) • and at day 10 with the development of fibrosis 1) Method and Experimental Approach • The test compound XG-102 (SEQ ID NO: 11) at two doses and vehicle control were given s.c. with a single intranasal administration of bleomycin and mice were analyzed after 1 and 10 days. The animals used in the model were 10 C57BL/6 mice (8 weeks old) per group. The experimental groups included vehicle, 0.001 mg/kg XG-102 (SEQ ID NO: 11) and 0.1 mg/kg XG-102 (SEQ ID NO: 11), and the treatment consisted of repeated sub-cutaneous administration of XG-102 (SEQ ID NO: 11), prior to bleomycin administration then every 3 days. Acute lung inflammation at 24 h was monitored by BAL lavage, cytology, cell counts, and lung myeloperoxidase activity. The effect of the compound was compared with vehicle controls. Lung fibrosis was assessed histologically using hematoxylin and eosin staining at day 10 after the single dose of bleomycin. 1.1) Bleomycin Administration • Bleomycin sulfate in saline (10 mg/kg body weight) from Belton Laboratories (Montrouge, France) or saline were given through the airways by nasal instillation in a volume of 40 μL under light ketamine-xylasine anesthesia. The groups for Bleomycin administration for both bleomycin induced inflammation and fibrosis included: Vehicle, 0.001 mg/kg XG-102 (SEQ ID NO: 11) and 0.1 mg/kg XG-102 (SEQ ID NO: 11). The route for bleomycin induced inflammation was subcutaneous (s.c.) route, and administration occurred as a single dose. The route for bleomycin induced fibrosis was subcutaneous (s.c.) route, and administration occurred 3 times in 10 days. 1.2) Bronchioalveolar Lavage Fluid (BAL F) • After incision of the trachea, a plastic cannula was inserted and airspaces were washed using 0.3 ml of PBS solution, heated to 37° C. The samples collected were dispatched in 2 fractions: the first one (1 ml corresponding to the 2 first lavages) was used for mediator measurement and the second one for the cell determination (4 ml). The first fraction was centrifuged (600 g for 10 min) and supernatant was fractionated and kept at −80° C. until mediator determination. The cell pellet was then resuspended in 0.4 ml sterile NaCl, 0.9%, and pooled with the second fraction and was used for cell counts. […] 1.4) Cell Count and Determination • Total cell count was determined in BAL fluid using a Malassez hemocytometer. […] 1.5) TNF Measurement • TNF level in BALF was determined using ELISA assay kits (Mouse DuoSet, R&D system, Minneapolis, USA) according to manufacturer's instructions. […] 1.6) MPO-Measurement • MPO-levels were measured upon administration of XG-102. […]
compound,measurement,setting,value
CC(C)C[C@@H](NC(=O)[C@@H](Cc1ccccc1)NC(=O)[C@H]1CCCN1C(=O)[C@@H](CCC(N)=O)NC(=O)[C@H](NC(=O)[C@H]1CCCN1C(=O)[C@@H](CCCNC(=N)N)NC(=O)[C@@H](CO)NC(=O)[C@@H](CCC(N)=O)NC(=O)[C@H](N)CC(=O)O)C(C)C)C(=O)N[C@H](CC(N)=O)C(=O)N[C@H](CC(C)C)C(=O)N[C@@H](C(=O)N[C@@H](C(=O)N1CCC[C@@H]1C(=O)N[C@H](CCCNC(=N)N)C(=O)N[C@H](CCCCN)C(=O)N1CCC[C@@H]1C(=O)N[C@H](CCCNC(=N)N)C(=O)N1CCC[C@@H]1C(=O)N1CCC[C@@H]1C(=O)N[C@H](CCCNC(=N)N)C(=O)N[C@H](CCCNC(=N)N)C(=O)N[C@H](CCCNC(=N)N)C(=O)N[C@H](CCC(N)=O)C(=O)N[C@H](CCCNC(=N)N)C(=O)N[C@H](CCCNC(=N)N)C(=O)N[C@H](CCCCN)C(=O)N[C@H](CCCCN)C(=O)N[C@H](CCCNC(=N)N)C(=O)NCC(=O)O)[C@H](C)O)[C@H](C)O [XG-102],neutrophil recruitment and other cell types in bronchioalveolar space,"0.001 mg/kg s.c., single dose, 1 day",has no effect on neutrophil recruitment or other cell types
same,neutrophil recruitment and total cells in bronchioalveolar lavage space,"0.1 mg/kg s.c., single dose, 1 day",reduces significantly the neutrophil recruitment and the number of total cells recruited
same,"histology, inflammatory cell accumulation",acute inflammation study,a decrease of the inflammatory cell accumulation in the peribronchial space
same,MPO levels in the lung,"s.c., MPO not significantly induced after bleomycin",only little effect on the MPO levels in the lung; also recorded: no effect on the MPO levels in the lung
same,TNF level in BALF,"s.c., TNF levels very low after BLM",a trend to reduction of the TNF level in BALF
